Numbered stars: 1 amine (or outer) side, 2 acyl side, 3 side chain; on linkers, the order of the positions; unused ones are H or OH. Bridge positions count the residues as written; N and C are the ends. Square brackets hold non-standard residues; d marks the D form. Ends that are not written are not given here. Peptide text beside a SMILES is read from it. ξ: configuration not given here. ξLeu(ψCOCO) = CC(C)CC(N[*:1])C(=O)C(=O)[*:2]; X1 = CSCCC(N[*:1])C(=O)C(=O)[*:2]
Tests used:
MC57G fibroblast cells = details: for cytotoxic effects: LIVE/DEAD staining, 2 days post-treatment
human cathepsin B = human cathepsin B (Homo sapiens, UniProt P07858); assay: Cathepsin B inhibition assay; format: biochemical; details: for protease inhibitory activity: cathepsin B, result in words
[1] = tested on: lymphocytic choriomeningitis virus (LCMV); details: for IC50: 1 h
[2] = tested on: herpes simplex virus (HSV); details: for IC50: 42 h; for antiviral activity: HSV, result in words
chymotrypsin = chymotrypsin (Bos taurus, UniProt P00766); assay: Chymotrypsin inhibition assay; format: biochemical; details: for protease inhibitory activity: chymotrypsin, result in words
[3] = biological target: T1, human neutrophil elastase (Homo sapiens, UniProt P08246); assay: Human neutrophil elastase inhibition assay; format: biochemical; details: for protease inhibitory activity: human neutrophil elastase, result in words
T1 sequence (P08246 30-267): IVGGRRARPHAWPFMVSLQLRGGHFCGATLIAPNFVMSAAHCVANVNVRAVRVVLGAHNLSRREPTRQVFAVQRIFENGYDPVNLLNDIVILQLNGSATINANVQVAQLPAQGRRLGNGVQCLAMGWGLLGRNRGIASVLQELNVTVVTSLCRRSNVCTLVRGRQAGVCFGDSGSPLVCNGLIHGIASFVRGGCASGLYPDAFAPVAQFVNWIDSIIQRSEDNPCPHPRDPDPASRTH

influenza A virus (IAV) = assay: Antiviral assay against IAV; format: cell-based, IAV strain A/WSN/1933 (H1N1); details: result in words
Huh7 = assay: Cell detachment in Huh7 cells; format: cell-based; details: Huh7 cell line
HeLa = assay: Cell detachment in HeLa cells; format: cell-based; details: HeLa cell line

Compound	cytotoxic effects (MC57G fibroblast cells)	IC50 (human cathepsin B) [µM]	IC50 [1] [µM]	IC50 [2] [µM]	IC50 (chymotrypsin) [µM]	IC50 [3] [µM]	protease inhibitory activity (human cathepsin B)	antiviral activity [1]	antiviral activity [2]	antiviral activity (influenza A virus (IAV))	protease inhibitory activity (chymotrypsin)	protease inhibitory activity [3]	cell detachment (Huh7)	concentration at which cell detachment from the assay plates was observed (MC57G fibroblast cells; low levels / slight detachment)	cell detachment (HeLa)
GTVTGSILTPIDYGCFNPFLCSVA[X1]GGVIDPIRFPNAWREL (disulfide 15-21) [Compound 3, G-RcsA*-Tyn]	no significant cytotoxic effects	3.74	37	69.7	9.2	5.76	–	–	–	–	–	–	–	–	–
CC[C@H](C)[C@H](N)C(=O)N[C@@H](CC(N)=O)C(=O)N[C@@H](C)C(=O)N[C@H](C(=O)NCC(=O)N[C@@H](CCC(N)=O)C(=O)N[C@@H](CCCNC(=N)N)C(=O)N[C@H](C(=O)N[C@@H](CC(=O)O)C(=O)N[C@@H](CO)C(=O)N[C@@H](CO)C(=O)N[C@H](C(=O)N[C@@H](Cc1ccccc1)C(=O)N[C@H](C(=O)N[C@@H](Cc1c[nH]cn1)C(=O)N[C@H]1CSSC[C@@H](C(=O)NCC(=O)N[C@H](C(=O)N[C@@H](C)C(=O)N[C@@H](CC(C)C)C(=O)N[C@@H](Cc2ccc(O)cc2)C(=O)NCC(=O)N[C@@H](CO)C(=O)N[C@H](C(=O)N[C@H](C(=O)N[C@@H](CC(=O)O)C(=O)N2CCC[C@H]2C(=O)N[C@@H](Cc2c[nH]cn2)C(=O)N[C@@H](CCCNC(=N)N)C(=O)N[C@@H](Cc2ccccc2)C(=O)N[C@@H](CC(=O)O)C(=O)N[C@@H](CCSC)C(=O)N[C@@H](CC(C)C)C(=O)N2CCC[C@H]2C(=O)O)[C@@H](C)CC)C(C)C)C(C)C)NC(=O)[C@H](C(C)C)NC(=O)[C@H](Cc2ccccc2)NC(=O)[C@H](Cc2ccccc2)NC(=O)[C@H](CC(=O)O)NC1=O)[C@@H](C)O)C(C)C)[C@@H](C)CC)[C@@H](C)O [Compound 6, RasA*] (H-INATGQRIDSSVFTHCDFFVCGVALYGSVIDPHRFDMLP-OH; disulfide 16-21; N-terminus assumed)	–	–	> 200	> 200	–	–	did not exhibit any protease inhibitory and antiviral activity	did not exhibit any protease inhibitory and antiviral activity	did not exhibit any protease inhibitory and antiviral activity	did not exhibit any protease inhibitory and antiviral activity	did not exhibit any protease inhibitory and antiviral activity	did not exhibit any protease inhibitory and antiviral activity	–	–	–
CC[C@H](C)[C@H](N)C(=O)N[C@@H](CC(N)=O)C(=O)N[C@@H](C)C(=O)N[C@H](C(=O)NCC(=O)N[C@@H](CCC(N)=O)C(=O)N[C@@H](CCCNC(=N)N)C(=O)N[C@H](C(=O)N[C@@H](CC(=O)O)C(=O)N[C@@H](CO)C(=O)N[C@@H](CO)C(=O)N[C@H](C(=O)N[C@@H](Cc1ccccc1)C(=O)N[C@H](C(=O)N[C@@H](Cc1c[nH]cn1)C(=O)N[C@H]1CSSC[C@@H](C(=O)NCC(=O)N[C@H](C(=O)N[C@@H](C)C(=O)NC(CC(C)C)C(=O)C(=O)NCC(=O)N[C@@H](CO)C(=O)N[C@H](C(=O)N[C@H](C(=O)N[C@@H](CC(=O)O)C(=O)N2CCC[C@H]2C(=O)N[C@@H](Cc2c[nH]cn2)C(=O)N[C@@H](CCCNC(=N)N)C(=O)N[C@@H](Cc2ccccc2)C(=O)N[C@@H](CC(=O)O)C(=O)N[C@@H](CCSC)C(=O)N[C@@H](CC(C)C)C(=O)N2CCC[C@H]2C(=O)O)[C@@H](C)CC)C(C)C)C(C)C)NC(=O)[C@H](C(C)C)NC(=O)[C@H](Cc2ccccc2)NC(=O)[C@H](Cc2ccccc2)NC(=O)[C@H](CC(=O)O)NC1=O)[C@@H](C)O)C(C)C)[C@@H](C)CC)[C@@H](C)O (stereo partly shown) [Compound 4, RasA*-Tyn] (H-INATGQRIDSSVFTHCDFFVCGVA[ξLeu(ψCOCO)]GSVIDPHRFDMLP-OH; disulfide 16-21; N-terminus assumed)	no significant cytotoxic effects	–	15.2	28.8	–	–	–	–	–	–	–	–	not detected	above 50 µM	not detected
GTVTGSILTPIDYGCFNPFLCSVAMYGGVIDPIRFPNAWREL (disulfide 15-21) [Compound 5, G-RcsA*]	–	–	> 200	> 200	–	–	did not exhibit any protease inhibitory and antiviral activity	did not exhibit any protease inhibitory and antiviral activity	did not exhibit any protease inhibitory and antiviral activity	did not exhibit any protease inhibitory and antiviral activity	did not exhibit any protease inhibitory and antiviral activity	did not exhibit any protease inhibitory and antiviral activity	–	–	–

From publication PMC11626197 (Proceedings of the National Academy of Sciences of the …, 2024)
